Measured values from patent publication US20240101572A1, “DIHYDROOXADIAZINONE COMPOUND AND PHARMACEUTICAL USE THEREOF” (Japan Tobacco Inc., priority 2022, published 2024).
Where two headings read alike, the source gives them in different places.

Experiments:
full-length human PLD2 = full-length human PLD2 (Homo sapiens (Human), UniProt O14939); test: Evaluation of human PLD2 enzyme inhibitory activity (Amplex Red / choline oxidase fluorescence); assay type: biochemical
Protocol: A method for measuring human PLD2 enzyme inhibitory activity using an enzyme in which a FLAG-tag is added to the N-terminus of full-length human PLD2 (1-933 amino acids) is shown below.
(§1) DNA fragment in which a FLAG-tag sequence is added to the 5′-end of full-length human PLD2 was amplified by PCR method, using commercially available human PLD2 gene (Promega KK) as a template. The amplified DNA fragment was fused with vector pVL1393 for baculovirus production (Pharmingen) digested with BamHI and EcoRI, using In-Fusion HD Cloning Kit (Takara Bio). The full-length human PLD2-expression plasmid DNA for baculovirus was isolated from Escherichia coli DH5a (TOYOBO) transformed with the obtained In-Fusion reaction product. Next, DNA fragment in which a FLAG-tag sequence is added to the 5′-end of full-length human PLD2 was amplified by PCR method, using the full-length human PLD2-expression plasmid DNA for baculovirus as a template. The amplified DNA fragment was fused with a DNA fragment in which a linker sequence is introduced into pcDNA3.4-TOPO (Life Technologies), using In-Fusion HD Cloning Kit (Takara Bio). The full-length human PLD2-expression plasmid DNA for animal cells was isolated from Escherichia coli DH5a transformed with the obtained In-Fusion reaction product. The base sequence of the full-length human PLD2 cloned into vector was determined by a Dye Terminator method using BigDye Terminator v3.1 Cycle Sequencing Kit (Applied Biosystems). The determined sequence was a sequence in which the FLAG-tag sequence was inserted at the 5′-end of the full-length human PLD2 (GenBank Accession Number: NM 002663).
(§2) Expi293F cells (Life Technologies) were cultured with shaking using Expi293 Expression Medium (Life Technologies) as a medium at 37° C. in the presence of 8% CO2. The gene introduction reagent PEI was prepared by dissolving Polyethylenimine Max (nominally MW 40,000) (Polysciences) in MilliQ water, adjusting the pH of the solution to 7.0 with NaOH to obtain a 1 mg/mL solution, and then filtering the solution through 0.22 μm filter. The full-length human PLD2-expression plasmid DNA for animal cells was transfected into Expi293F cells using PEI, and after 48 hours of shaking culture, the cells were collected and stored at −80° C.
(§3) To the full-length human PLD2-expressed cells was added a Homogenate buffer (20 mmol/L Na-phosphate pH 7.5, 250 mmol/L NaCl, 1 mmol/L MgCl2, 1% β-OG, 0.05 mmol/L DTT+complete EDTA-free (Roche Diagnostics K.K.)), and the cells were lysed by Microfluidizer Processor M-110EH (Mizuho Kogyo Co., Ltd.). The lysate was centrifuged at 10,100×g at 4° C. for 15 minutes, and the supernatant was collected and filtered through 0.45 μm filter. To the centrifuged supernatant was added ANTI-FLAG M2 Affinity Gel (SIGMA-Aldrich) resin equilibrated with a Homogenate buffer, and the mixed solution was stirred at 4° C. for 1 hr or more. The mixed solution was loaded onto Poly-Prep column, and the resin was washed with a Wash buffer (20 mmol/L Na-phosphate pH 7.5, 150 mmol/L NaCl, 1 mmol/L MgCl2, 0.02% Triton, 0.05 mmol/L DTT). A Wash buffer containing 400 μg/mL DYKDDDDK Peptide (Scrum Inc.) was added to the column to elute the protein bound to the resin. The eluted fractions were subjected to SDS-PAGE followed by CBB staining to identify the fractions containing the full-length human PLD2. The eluted fractions of the full-length human PLD2 were collected and concentrated using Amicon Ultra-15 100k (Merck Millipore). The concentrated fractions were collected, flash-frozen in liquid nitrogen and stored at −80° C.
(§4) A DMSO or test substance solution (the DMSO final concentration: 5%) prepared by diluting DMSO or test substance with an Assay buffer (50 mmol/L HEPES pH 7.5, 80 mmol/L KCl, 3 mmol/L EGTA, 3.6 mmol/L MgCl2, 0.01% NP-40, 0.1% BSA), and the solution was added to a 384 well Assay Plate (Black, Polystyrene, Non-Treated, Cat No. 3573, Corning) by 5 μL/well. […]

full-length human PLD1 = full-length human PLD1 (Homo sapiens (Human), UniProt Q13393); test: Evaluation of human PLD1 enzyme inhibitory activity (Amplex Red / choline oxidase fluorescence); assay type: biochemical
Chain of full-length human PLD1 (Q13393 other isoform, or with tags, fused parts or gaps): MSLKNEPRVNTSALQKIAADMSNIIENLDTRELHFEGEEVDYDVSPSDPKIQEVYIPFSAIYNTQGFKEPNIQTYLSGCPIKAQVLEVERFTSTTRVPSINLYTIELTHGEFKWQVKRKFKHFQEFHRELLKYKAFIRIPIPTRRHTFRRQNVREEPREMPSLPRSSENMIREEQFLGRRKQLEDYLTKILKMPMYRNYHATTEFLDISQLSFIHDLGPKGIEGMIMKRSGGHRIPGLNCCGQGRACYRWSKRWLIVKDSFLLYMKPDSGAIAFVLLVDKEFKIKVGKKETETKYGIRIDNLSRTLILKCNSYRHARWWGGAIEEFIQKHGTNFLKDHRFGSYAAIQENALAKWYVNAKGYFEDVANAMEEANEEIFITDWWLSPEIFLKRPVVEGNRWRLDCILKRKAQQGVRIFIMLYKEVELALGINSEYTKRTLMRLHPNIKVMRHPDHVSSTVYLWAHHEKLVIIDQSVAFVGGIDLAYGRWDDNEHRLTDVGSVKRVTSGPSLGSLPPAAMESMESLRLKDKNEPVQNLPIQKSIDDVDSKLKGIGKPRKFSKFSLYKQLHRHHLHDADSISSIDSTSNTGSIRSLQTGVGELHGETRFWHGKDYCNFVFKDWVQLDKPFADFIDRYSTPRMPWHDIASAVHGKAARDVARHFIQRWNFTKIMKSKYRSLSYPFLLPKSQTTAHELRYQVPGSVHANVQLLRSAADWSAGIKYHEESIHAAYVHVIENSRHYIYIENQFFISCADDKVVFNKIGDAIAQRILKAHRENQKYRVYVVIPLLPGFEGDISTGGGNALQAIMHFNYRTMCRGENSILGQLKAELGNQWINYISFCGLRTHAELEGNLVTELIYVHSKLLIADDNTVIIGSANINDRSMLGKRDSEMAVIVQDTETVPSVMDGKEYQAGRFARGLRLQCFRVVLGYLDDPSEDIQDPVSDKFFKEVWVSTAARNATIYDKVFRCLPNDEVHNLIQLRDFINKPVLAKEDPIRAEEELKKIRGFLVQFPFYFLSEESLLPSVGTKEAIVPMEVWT
Protocol: A method for measuring human PLD1 enzyme inhibitory activity using an enzyme in which a FLAG-tag is added to the N-terminus of full-length human PLD1 (1-1036 amino acids) is shown below.
as §1, with “PLD1” for “PLD2”, “PLD1-expression” for “PLD2-expression”, “NM_001130081).” for “NM 002663).”
as §2, with “PLD1-expression” for “PLD2-expression”
as §3, with “PLD1-expressed” for “PLD2-expressed”, “PLD1.” for “PLD2.”, “PLD1” for “PLD2”
as §4

[1] = full-length human PLD2 enzyme, read-out: PLD2 IC50
[2] = full-length human PLD1 enzyme, read-out: PLD1 IC50
[3] = read-out: inhibition rate of PLD2 at 10 μM compound
[4] = read-out: inhibition rate of PLD1 at 10 μM compound

Chain of full-length human PLD2 (O14939 whole entry, the tested form may be a part): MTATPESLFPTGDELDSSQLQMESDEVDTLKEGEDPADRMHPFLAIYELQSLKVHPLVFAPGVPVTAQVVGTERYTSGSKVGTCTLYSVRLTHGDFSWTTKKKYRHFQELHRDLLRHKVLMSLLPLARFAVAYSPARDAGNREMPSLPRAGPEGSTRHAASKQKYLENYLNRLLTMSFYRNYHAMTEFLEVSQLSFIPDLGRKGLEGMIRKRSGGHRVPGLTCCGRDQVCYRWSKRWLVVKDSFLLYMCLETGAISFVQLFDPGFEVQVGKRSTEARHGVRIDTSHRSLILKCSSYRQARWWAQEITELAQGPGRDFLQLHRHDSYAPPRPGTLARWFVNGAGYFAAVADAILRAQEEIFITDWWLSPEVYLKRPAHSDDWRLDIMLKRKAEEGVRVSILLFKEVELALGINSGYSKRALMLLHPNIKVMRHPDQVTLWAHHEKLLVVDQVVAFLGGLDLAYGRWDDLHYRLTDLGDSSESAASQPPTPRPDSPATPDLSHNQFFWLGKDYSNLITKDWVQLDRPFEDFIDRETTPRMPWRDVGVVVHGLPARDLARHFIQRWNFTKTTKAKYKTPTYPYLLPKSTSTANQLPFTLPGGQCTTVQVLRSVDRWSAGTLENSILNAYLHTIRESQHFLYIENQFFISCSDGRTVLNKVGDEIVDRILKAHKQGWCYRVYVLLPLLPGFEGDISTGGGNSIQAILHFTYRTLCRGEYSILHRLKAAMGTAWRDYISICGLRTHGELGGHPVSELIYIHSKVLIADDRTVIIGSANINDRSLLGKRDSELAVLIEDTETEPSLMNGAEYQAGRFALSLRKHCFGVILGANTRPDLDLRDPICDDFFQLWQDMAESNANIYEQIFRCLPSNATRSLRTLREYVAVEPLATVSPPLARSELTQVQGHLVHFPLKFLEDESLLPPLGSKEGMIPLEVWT

## CC(C)S(=O)(=O)c1ccc(C2=NNC(=O)O[C@]23CC[C@@H](C[C@H](C)NC(=O)c2cc(Cl)no2)CC3)c(Br)c1 [Example 67]
full-length human PLD2; [1]
  IC50: < 0.01 µM
full-length human PLD1; [2]
  IC50: < 0.01 µM

## C[C@@H](C[C@H]1CC[C@]2(CC1)OC(=O)NN=C2c1ccc(F)cc1Cl)NC(=O)c1cc2cc(S(C)(=O)=O)ccc2[nH]1 [Example 62]
full-length human PLD2; [1]
  IC50: 0.223 µM
full-length human PLD1; [2]
  IC50: 0.14 µM

## COc1cc(C)c(C2=NNC(=O)O[C@]23CC[C@@H](C[C@H](C)NC(=O)N2CCc4ccccc4C2)CC3)cn1 [Example 236]
full-length human PLD2; [1]
  IC50: < 0.01 µM
full-length human PLD1; [2]
  IC50: 0.015 µM

## CC(=O)Nc1cccc2[nH]c(C(=O)N[C@@H](C)C[C@H]3CC[C@]4(CC3)OC(=O)NN=C4c3ccc(F)cc3)cc12 [Example 142]
full-length human PLD2; [1]
  IC50: < 0.01 µM
full-length human PLD1; [2]
  IC50: 0.022 µM

## C[C@@H](C[C@H]1CC[C@]2(CC1)OC(=O)NN=C2c1ccc(F)cc1Br)NC(=O)N1CCC2(CC2)C1 [Example 282]
full-length human PLD2; [1]
  IC50: 0.146 µM
full-length human PLD1; [2]
  IC50: 0.097 µM

## Cc1cc(C(=O)N[C@@H](C)CN2CCC3(CC2)OC(=O)NN=C3c2ccc(F)cc2Cl)no1 [Example 98]
full-length human PLD2; [1]
  IC50: 0.078 µM
full-length human PLD1; [2]
  IC50: 0.057 µM

## CNC(=O)C(=O)N[C@@H](C)C[C@H]1CC[C@]2(CC1)OC(=O)NN=C2c1cc(OC)c(F)cc1Br [Example 2-050]
full-length human PLD2; [1]
  IC50: < 0.01 µM
full-length human PLD1; [2]
  IC50: 0.012 µM

## C[C@@H](CN1CCC2(CC1)OC(=O)NN=C2c1ccc(F)cc1Br)NC(=O)c1cc2cc(F)ccc2[nH]1 [Example 2]
full-length human PLD2; [1]
  IC50: < 0.01 µM
full-length human PLD1; [2]
  IC50: 0.02 µM

## CNC(=O)C(=O)N[C@@H](C)C[C@H]1CC[C@]2(CC1)OC(=O)NN=C2c1cnc(C(=O)O)cc1C [Example 186]
full-length human PLD2; 10 μM compound, read-out: PLD2 inhibition rate at 10 μM
  inhibition at 10 µM: 18%
full-length human PLD2; [3]
  inhibition at 10 µM: 18%
full-length human PLD1; 10 μM compound, read-out: PLD1 inhibition rate at 10 μM
  inhibition at 10 µM: 33%
full-length human PLD1; [4]
  inhibition at 10 µM: 33%

## CNC(=O)C(=O)N[C@@H](C)C[C@H]1CC[C@]2(CC1)OC(=O)NN=C2c1cccc2c1OCC2 [Example 106]
full-length human PLD2; [1]
  IC50: 0.048 µM
full-length human PLD1; [2]
  IC50: 0.026 µM

## [2H]C([2H])([2H])NC(=O)C(=O)N[C@@H](C)C[C@]1(C#N)CC[C@@]2(CC1)OC(=O)NN=C2c1cc(F)c(F)cc1Br [Example 2-140]
full-length human PLD2; column 2 of continuation tables 2-12 to 2-14, read-out: human PLD2 enzyme inhibitory activity IC50
  IC50: < 0.01 µM
full-length human PLD1; column 1 of continuation tables 2-12 to 2-14, read-out: human PLD1 enzyme inhibitory activity IC50
  IC50: 0.017 µM

## CNC(=O)C(=O)N[C@@H](C)[C@H](C)N1CCC2(CC1)OC(=O)NN=C2c1ccc(F)cc1Br [Example 289]
full-length human PLD2; [1]
  IC50: < 0.01 µM
full-length human PLD1; [2]
  IC50: 0.018 µM

## Cc1cc(C(=O)N[C@@H](C)CN2CCC3(CC2)OC(=O)NN=C3c2ccc(Br)cc2C(F)(F)F)[nH]n1 [Example 331]
full-length human PLD2; [1]
  IC50: 0.022 µM
full-length human PLD1; [2]
  IC50: 0.032 µM

## CNC(=O)C(=O)N[C@@H](C)C(C#N)N1CCC2(CC1)OC(=O)NN=C2c1ccc(F)cc1Br (mixture of isomers) [Example 2-010]
full-length human PLD2; [1]
  IC50: 1.26 µM
full-length human PLD1; [2]
  IC50: 1.01 µM

## C[C@@H](CN1CCC2(CC1)OC(=O)NN=C2c1ccc(F)cc1Br)NC(=O)N1CCC2(CC2)C1 [Example 284]
full-length human PLD2; [1]
  IC50: 0.04 µM
full-length human PLD1; [2]
  IC50: 0.061 µM

## [2H]C([2H])([C@H](C)NC(=O)C(=O)NC)N1CCC2(CC1)OC(=O)NN=C2c1ccc(F)cc1Br [Example 333]
full-length human PLD2; [1]
  IC50: < 0.01 µM
full-length human PLD1; [2]
  IC50: 0.025 µM

## C[C@@H](C[C@H]1CC[C@]2(CC1)OC(=O)NN=C2c1cc(C#N)ccc1Br)NC(=O)c1ccn(C)n1 [Example 2-070]
full-length human PLD2; [1]
  IC50: 0.038 µM
full-length human PLD1; [2]
  IC50: 0.068 µM

## CNC(=O)C(=O)N[C@@H](C)C[C@H]1CC[C@]2(CC1)OC(=O)NN=C2c1ccc(OCC(C)(C)O)cc1Br [Example 130]
full-length human PLD2; [1]
  IC50: < 0.01 µM
full-length human PLD1; [2]
  IC50: 0.018 µM

## CNC(=O)C(=O)N[C@@H](C)C[C@H]1CC[C@]2(CC1)OC(=O)NN=C2c1ccc(OCC(F)F)cc1Br [Example 85]
full-length human PLD2; [1]
  IC50: < 0.01 µM
full-length human PLD1; [2]
  IC50: 0.012 µM

## CNC(=O)C(=O)N[C@@H](C)C[C@H]1CC[C@]2(CC1)OC(=O)NN=C2c1ccc(F)cc1Br [Example 14]
full-length human PLD2; [1]
  IC50: < 0.01 µM
full-length human PLD1; [2]
  IC50: 0.01 µM

## CNC(=O)C(=O)N[C@@H](C)C[C@H]1CC[C@]2(CC1)OC(=O)NN=C2c1cnccc1C [Example 112]
full-length human PLD2; [1]
  IC50: 0.02 µM
full-length human PLD1; [2]
  IC50: 0.031 µM

## CNC(=O)C(=O)N[C@@H](C)C[C@H]1CC[C@]2(CC1)OC(=O)NN=C2c1cnc(N2CC3(COC3)C2)cc1C [Example 191]
full-length human PLD2; [1]
  IC50: < 0.01 µM
full-length human PLD1; [2]
  IC50: 0.038 µM

## CNC(=O)C(=O)N[C@@H](C)C[C@]1(C#N)CC[C@@]2(CC1)OC(=O)N(C)N=C2c1cc(C#N)ccc1Br [Example 2-112]
full-length human PLD2; read-out: human PLD2 % inhibition at 10 μM
  inhibition at 10 µM: 39%
full-length human PLD2; [3]
  inhibition at 10 µM: 39%

## CNC(=O)C(=O)N[C@@H](C)C[C@]1(C#N)CC[C@@]2(CC1)OC(=O)NN=C2c1cc(OCC(F)F)ncc1Br [Example 2-099]
full-length human PLD1; read-out: human PLD1 % inhibition at 10 μM
  inhibition at 10 µM: 21%
full-length human PLD1; [4]
  inhibition at 10 µM: 21%
